Values of other authors, collected in patent US20140100272A1, “METHODS OF ADMINISTERING COMPOSITIONS COMPRISING DOCOSAPENTAENOIC ACID” (Matinas BioPharma, Inc., priority 2012, published 2014).

Details: in vivo

Structure (SMILES): CC[C@H](C)C(=O)O[C@H]1C[C@@H](C)C=C2C=C[C@H](C)[C@H](CC[C@@H]3C[C@@H](O)CC(=O)O3)[C@H]21 [lovastatin]
- absorbed at rates: about 30%
